Data as given in patent US20260325533A1, “CDK INHIBITOR COMPOUNDS” (ALEKSIA THERAPEUTICS, INC., priority 2023, published 2026).
Where two headings read alike, the source gives them in different places.

Assays:
Assay type in all cases: biochemical
CDK6/CCND1 = CDK6/CCND1 (Homo sapiens, UniProt Q00534); experiment: CDK6 homogeneous time-resolved fluorescence (HTRF) kinase assay; details: >250 nM; CDK6/CCND; 1 mM ATP; read-out: CDK6/CCND IC50, >250 nM
In short: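 Enzyme pre-incubated 20 min at 23 °C with compound, then reacted 60 min at 23 °C with 1 mM ATP and 50 nM ULight-4E-BP1 (Thr37/46) peptide; 1 nM enzyme, 1% DMSO. EDTA-stopped, Eu-anti-phospho antibody TR-FRET read (665 nm or 665/615 ratio); 11-point half-log titration from 10 μM gave IC50.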

CDK4/CCND3 = CDK4/CCND3 (Homo sapiens, UniProt P11802); experiment: CDK4 homogeneous time-resolved fluorescence (HTRF) kinase assay; details: >250 nM; CDK4/CCND; read-out: CDK4/CCND IC50, >250 nM
In short: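 Steps: compound plus 1.5 nM CDK4/CCND3, 20 min, 23 °C; add 1 mM ATP and 50 nM ULight-4E-BP1 (Thr37/46) peptide, 60 min; stop with 10 mM EDTA; add 2 nM Eu anti-phospho antibody, 60 min; read 665 nm. IC50 from 11-point half-log series starting 10 μM.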

CDK2/CCNE1 = CDK2/CCNE1 (Homo sapiens, UniProt P24941); experiment: CDK2 homogeneous time-resolved fluorescence (HTRF) kinase assay; details: CDK2/CCNE
In short: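 CDK2/CCNE1 (3 nM) preincubated 20 min at 23 °C with compound, then reacted 60 min at 23 °C with 1 mM ATP and 50 nM ULight-4E-BP1 (Thr37/46) peptide. Stopped with EDTA, phospho-peptide detected by Eu-anti-phospho antibody (665 nm or 665/615 ratio). IC50 from 11-point half-log titrations typically starting at 10 μM.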

CDK1/CCNB1 = CDK1/CCNB1 (Homo sapiens, UniProt P06493); experiment: CDK1 homogeneous time-resolved fluorescence (HTRF) kinase assay; details: >250 nM; CDK1/CCNB; read-out: CDK1/CCNB IC50 >250 nM
In short: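 CDK1/CCNB1 0.5 nM + cpd, 20 min 23 °C; add 1 mM ATP, 50 nM ULight-4E-BP1 peptide, 60 min 23 °C; stop 10 mM EDTA; 2 nM Eu-Ab, 60 min; HTRF 665 nm. 11-pt half-log, top 10 μM typical; IC50.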

[1] = <25 nM, read-out: CDK2/CCNE IC50, <25 nM
[2] = 25-250 nM, read-out: CDK2/CCNE IC50, 25-250 nM

CDK1/CCNB1, sequence (P06493 whole entry): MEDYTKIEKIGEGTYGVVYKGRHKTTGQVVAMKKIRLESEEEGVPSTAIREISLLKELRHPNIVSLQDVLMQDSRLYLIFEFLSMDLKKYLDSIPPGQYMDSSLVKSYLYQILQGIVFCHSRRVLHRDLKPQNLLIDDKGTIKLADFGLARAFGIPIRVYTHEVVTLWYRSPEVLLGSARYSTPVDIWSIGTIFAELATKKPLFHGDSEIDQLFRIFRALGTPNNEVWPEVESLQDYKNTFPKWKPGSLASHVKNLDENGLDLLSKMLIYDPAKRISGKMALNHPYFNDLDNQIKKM
CDK1/CCNB1, sequence (P14635 whole entry partner): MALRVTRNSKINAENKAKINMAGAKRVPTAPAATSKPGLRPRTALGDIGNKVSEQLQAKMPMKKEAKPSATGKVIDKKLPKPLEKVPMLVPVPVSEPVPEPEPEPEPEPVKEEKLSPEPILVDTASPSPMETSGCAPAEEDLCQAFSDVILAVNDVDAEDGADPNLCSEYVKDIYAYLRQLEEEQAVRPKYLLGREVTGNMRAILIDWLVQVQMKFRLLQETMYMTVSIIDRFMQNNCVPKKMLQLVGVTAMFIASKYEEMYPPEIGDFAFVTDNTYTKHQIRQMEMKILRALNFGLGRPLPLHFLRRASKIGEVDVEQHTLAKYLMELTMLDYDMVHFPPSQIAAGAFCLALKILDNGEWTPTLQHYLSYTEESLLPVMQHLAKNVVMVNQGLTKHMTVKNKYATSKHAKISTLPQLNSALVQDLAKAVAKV
CDK6/CCND1, sequence (Q00534 whole entry): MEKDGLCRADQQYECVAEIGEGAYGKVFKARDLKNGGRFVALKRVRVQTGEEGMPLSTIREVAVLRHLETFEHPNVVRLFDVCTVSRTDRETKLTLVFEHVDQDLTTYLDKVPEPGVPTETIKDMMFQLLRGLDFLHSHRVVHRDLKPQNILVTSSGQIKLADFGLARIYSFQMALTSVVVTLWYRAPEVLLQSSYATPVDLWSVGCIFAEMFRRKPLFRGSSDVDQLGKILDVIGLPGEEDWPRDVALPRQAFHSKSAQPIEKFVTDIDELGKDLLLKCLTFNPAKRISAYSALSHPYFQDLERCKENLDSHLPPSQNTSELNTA
CDK6/CCND1, sequence (P24385 whole entry partner): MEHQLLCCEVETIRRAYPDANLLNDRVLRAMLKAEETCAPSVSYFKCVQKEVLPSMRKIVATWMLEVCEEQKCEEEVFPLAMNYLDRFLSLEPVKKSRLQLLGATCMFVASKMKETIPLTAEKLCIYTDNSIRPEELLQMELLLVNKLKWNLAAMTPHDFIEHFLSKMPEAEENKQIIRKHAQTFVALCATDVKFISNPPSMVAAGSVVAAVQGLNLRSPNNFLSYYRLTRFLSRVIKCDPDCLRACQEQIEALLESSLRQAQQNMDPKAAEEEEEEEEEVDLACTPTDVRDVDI
CDK4/CCND3, sequence (P11802 whole entry): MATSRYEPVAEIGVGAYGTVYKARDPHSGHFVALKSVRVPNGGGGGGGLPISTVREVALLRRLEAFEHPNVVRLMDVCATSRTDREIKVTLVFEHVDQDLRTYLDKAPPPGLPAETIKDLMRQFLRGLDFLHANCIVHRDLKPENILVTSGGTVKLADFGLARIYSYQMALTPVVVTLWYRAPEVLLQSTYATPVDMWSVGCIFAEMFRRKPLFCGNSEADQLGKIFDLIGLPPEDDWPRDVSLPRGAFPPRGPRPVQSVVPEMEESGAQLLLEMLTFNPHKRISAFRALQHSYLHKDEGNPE
CDK4/CCND3, sequence (P30281 whole entry partner): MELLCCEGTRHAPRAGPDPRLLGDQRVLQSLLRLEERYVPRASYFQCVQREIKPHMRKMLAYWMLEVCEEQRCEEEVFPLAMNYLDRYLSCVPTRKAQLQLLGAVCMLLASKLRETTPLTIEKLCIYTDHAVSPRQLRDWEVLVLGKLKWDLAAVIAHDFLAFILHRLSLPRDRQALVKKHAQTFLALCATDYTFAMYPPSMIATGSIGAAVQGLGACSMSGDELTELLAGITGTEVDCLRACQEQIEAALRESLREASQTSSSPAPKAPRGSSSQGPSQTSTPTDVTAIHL

IC50 (CDK6/CCND1) [µM] | IC50 (CDK4/CCND3) [µM] | IC50 (CDK2/CCNE1; [1]) [µM] | IC50 (CDK1/CCNB1) [µM] | IC50 (CDK2/CCNE1; [2]) [µM] | IC50 (CDK2/CCNE1; >250 nM, read-out: CDK2/CCNE IC50, >250 nM) [µM] | Structure (SMILES)
> 0.25 | > 0.25 | < 0.025 | > 0.25 | – | – | COc1cnc(NS(=O)(=O)c2ccc(Nc3cc4c(-c5ccc6c(cnn6CC(O)(C(F)(F)F)C(F)(F)F)c5C)nccc4cn3)cc2)nc1N1CCOCC1 [Ex 702, N-(5-methoxy-4-morpholinopyrimidin-2-yl)-4-((5-(4-methyl-1-(3,3,3-trifluoro-2-hydroxy-2-(trifluoromethyl)propyl)-1H-indazol-5-yl)-2,6-naphthyridin-3-yl)amino)benzenesulfonamide]
> 0.25 | > 0.25 | – | > 0.25 | 0.025 to 0.25 | – | COc1cc(NS(=O)(=O)c2ccc(Nc3cc4c(-c5ccc6c(cnn6CC(O)(C(F)(F)F)C(F)(F)F)c5C)nccc4cn3)cc2)nc(N2CCOCC2)c1 [Ex 703, N-(4-methoxy-6-morpholinopyridin-2-yl)-4-((5-(4-methyl-1-(3,3,3-trifluoro-2-hydroxy-2-(trifluoromethyl)propyl)-1H-indazol-5-yl)-2,6-naphthyridin-3-yl)amino)benzenesulfonamide]
> 0.25 | > 0.25 | – | > 0.25 | 0.025 to 0.25 | – | COc1cc(N2CCOCC2)cc(NS(=O)(=O)c2ccc(Nc3cc4c(-c5ccc6c(cnn6CC(O)(C(F)(F)F)C(F)(F)F)c5C)nccc4cn3)cc2)n1 [Ex 704, N-(6-methoxy-4-morpholinopyridin-2-yl)-4-((5-(4-methyl-1-(3,3,3-trifluoro-2-hydroxy-2-(trifluoromethyl)propyl)-1H-indazol-5-yl)-2,6-naphthyridin-3-yl)amino)benzenesulfonamide]
> 0.25 | > 0.25 | < 0.025 | > 0.25 | – | – | Cc1cnc(NS(=O)(=O)c2ccc(Nc3cc4c(-c5ccc6c(cnn6CC(O)(C(F)(F)F)C(F)(F)F)c5C)nccc4cn3)cc2)nc1N1CCOCC1 [Ex 706, 4-((5-(4-methyl-1-(3,3,3-trifluoro-2-hydroxy-2-(trifluoromethyl)propyl)-1H-indazol-5-yl)-2,6-naphthyridin-3-yl)amino)-N-(5-methyl-4-morpholinopyrimidin-2-yl)benzenesulfonamide]
> 0.25 | > 0.25 | < 0.025 | > 0.25 | – | – | COc1cc(N2CCOCC2)nc(NS(=O)(=O)c2ccc(Nc3cc4c(-c5ccc6c(cnn6CC(O)(C(F)(F)F)C(F)(F)F)c5C)nccc4cn3)cc2)n1 [Ex 707, N-(4-methoxy-6-morpholinopyrimidin-2-yl)-4-((5-(4-methyl-1-(3,3,3-trifluoro-2-hydroxy-2-(trifluoromethyl)propyl)-1H-indazol-5-yl)-2,6-naphthyridin-3-yl)amino)benzenesulfonamide]
> 0.25 | > 0.25 | – | > 0.25 | 0.025 to 0.25 | – | COc1ccc(NS(=O)(=O)c2ccc(Nc3cc4c(-c5ccc6c(cnn6CC(O)(C(F)(F)F)C(F)(F)F)c5C)nccc4cn3)cc2)cc1C(C)(C)O [Ex 709, N-(3-(2-hydroxypropan-2-yl)-4-methoxyphenyl)-4-((5-(4-methyl-1-(3,3,3-trifluoro-2-hydroxy-2-(trifluoromethyl)propyl)-1H-indazol-5-yl)-2,6-naphthyridin-3-yl)amino)benzenesulfonamide]
> 0.25 | > 0.25 | < 0.025 | > 0.25 | – | – | Cc1c(-c2nccc3cnc(Nc4ccc(S(=O)(=O)Nc5cc(C(C)(C)O)ccn5)cc4)cc23)ccc2c1cnn2CC(O)(C(F)(F)F)C(F)(F)F [Ex 710, N-(4-(2-hydroxypropan-2-yl)pyridin-2-yl)-4-((5-(4-methyl-1-(3,3,3-trifluoro-2-hydroxy-2-(trifluoromethyl)propyl)-1H-indazol-5-yl)-2,6-naphthyridin-3-yl)amino)benzenesulfonamide]
> 0.25 | > 0.25 | < 0.025 | > 0.25 | – | – | Cc1c(-c2nccc3cnc(Nc4ccc(S(=O)(=O)Nc5cccc(C(C)(C)O)n5)cc4)cc23)ccc2c1cnn2CC(O)(C(F)(F)F)C(F)(F)F [Ex 711, N-(6-(2-hydroxypropan-2-yl)pyridin-2-yl)-4-((5-(4-methyl-1-(3,3,3-trifluoro-2-hydroxy-2-(trifluoromethyl)propyl)-1H-indazol-5-yl)-2,6-naphthyridin-3-yl)amino)benzenesulfonamide]
> 0.25 | > 0.25 | – | > 0.25 | 0.025 to 0.25 | – | Cc1c(-c2nccc3cnc(Nc4ccc(S(=O)(=O)Nc5cccc(C(C)(C)O)c5)cc4)cc23)ccc2c1cnn2CC(O)(C(F)(F)F)C(F)(F)F [Ex 712, N-(3-(2-hydroxypropan-2-yl)phenyl)-4-((5-(4-methyl-1-(3,3,3-trifluoro-2-hydroxy-2-(trifluoromethyl)propyl)-1H-indazol-5-yl)-2,6-naphthyridin-3-yl)amino)benzenesulfonamide]
> 0.25 | > 0.25 | – | > 0.25 | 0.025 to 0.25 | – | Cc1c(-c2nccc3cnc(Nc4ccc(S(=O)(=O)Nc5ccccc5N5CCOCC5)cc4)cc23)ccc2c1cnn2CC(O)(C(F)(F)F)C(F)(F)F [Ex 713, 4-((5-(4-methyl-1-(3,3,3-trifluoro-2-hydroxy-2-(trifluoromethyl)propyl)-1H-indazol-5-yl)-2,6-naphthyridin-3-yl)amino)-N-(2-morpholinophenyl)benzenesulfonamide]
> 0.25 | > 0.25 | – | > 0.25 | 0.025 to 0.25 | – | COc1ccccc1NS(=O)(=O)c1ccc(Nc2cc3c(-c4ccc5c(cnn5CC(O)(C(F)(F)F)C(F)(F)F)c4C)nccc3cn2)cc1 [Ex 714, N-(2-methoxyphenyl)-4-((5-(4-methyl-1-(3,3,3-trifluoro-2-hydroxy-2-(trifluoromethyl)propyl)-1H-indazol-5-yl)-2,6-naphthyridin-3-yl)amino)benzenesulfonamide]
> 0.25 | > 0.25 | – | > 0.25 | – | > 0.25 | Cc1ccccc1NS(=O)(=O)c1ccc(Nc2cc3c(-c4ccc5c(cnn5CC(O)(C(F)(F)F)C(F)(F)F)c4C)nccc3cn2)cc1 [Ex 715, 4-((5-(4-methyl-1-(3,3,3-trifluoro-2-hydroxy-2-(trifluoromethyl)propyl)-1H-indazol-5-yl)-2,6-naphthyridin-3-yl)amino)-N-(o-tolyl)benzenesulfonamide]
> 0.25 | > 0.25 | – | > 0.25 | 0.025 to 0.25 | – | COc1cccc(NS(=O)(=O)c2ccc(Nc3cc4c(-c5ccc6c(cnn6CC(O)(C(F)(F)F)C(F)(F)F)c5C)nccc4cn3)cc2)c1 [Ex 717, N-(3-methoxyphenyl)-4-((5-(4-methyl-1-(3,3,3-trifluoro-2-hydroxy-2-(trifluoromethyl)propyl)-1H-indazol-5-yl)-2,6-naphthyridin-3-yl)amino)benzenesulfonamide]
> 0.25 | > 0.25 | – | > 0.25 | 0.025 to 0.25 | – | COc1ccc(NS(=O)(=O)c2ccc(Nc3cc4c(-c5ccc6c(cnn6CC(O)(C(F)(F)F)C(F)(F)F)c5C)nccc4cn3)cc2)cc1 [Ex 718, N-(4-methoxyphenyl)-4-((5-(4-methyl-1-(3,3,3-trifluoro-2-hydroxy-2-(trifluoromethyl)propyl)-1H-indazol-5-yl)-2,6-naphthyridin-3-yl)amino)benzenesulfonamide]
